From ChEMBL document CHEMBL1201862, “PubChem BioAssay data set” (2004)
Calls of active or inactive are those of the source.

How the values were obtained:
[1] = target: T1, Carboxy-terminal domain RNA polymerase II polypeptide A small phosphatase 1 (Homo sapiens, UniProt Q9GZU7); experiment: CTDSP1 inhibitors, concentration-response, biochemical, absorbance readout, ultra-high-throughput screen actives (AID 540297); format: functional
T1 sequence (Q9GZU7 whole entry): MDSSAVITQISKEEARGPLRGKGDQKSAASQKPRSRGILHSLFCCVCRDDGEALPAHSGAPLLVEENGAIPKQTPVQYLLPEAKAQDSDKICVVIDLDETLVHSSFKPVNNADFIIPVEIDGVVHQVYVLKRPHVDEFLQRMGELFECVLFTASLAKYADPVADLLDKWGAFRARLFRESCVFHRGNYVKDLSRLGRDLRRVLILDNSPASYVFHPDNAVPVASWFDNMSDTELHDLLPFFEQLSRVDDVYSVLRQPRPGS

[2] = target: DNA (cytosine-5)-methyltransferase 1 (Homo sapiens, UniProt P26358); experiment: inhibition of DNA methylation by DNMT1 – biochemical, fluorescent molecular beacon, confirmation (AID 602386); format: functional
[3] = target: T2, Probable nicotinate-nucleotide adenylyltransferase (Staphylococcus aureus (strain N315), UniProt P65502); format: functional, Staphylococcus aureus subsp. aureus N315;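 on IC50 Mean: confirmatory dose-response retesting of NadD inhibitor hits first found in an ultra-high-throughput screen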
[4] = target: T2, Probable nicotinate-nucleotide adenylyltransferase; format: functional, Staphylococcus aureus subsp. aureus N315; conditions: read-out: IC50_Mean
Vero = experiment: viability of Vero cells under compound – cytotoxicity control for flavivirus capping enzyme inhibitors (AID 588742); format: functional; conditions: Chlorocebus sabaeus
Genome polyprotein = Genome polyprotein (dengue virus type 2, UniProt P29990); experiment: flavivirus cap methylation enzyme inhibition – biochemical, confirmation dose response, primary screen (AID 588689); format: functional
HEK293 [5] = experiment: cells; conditions: Homo sapiens
[6] = viability loss in THP-1 monocytes – THP-1 cells, cytotoxicity control for Vif-APOBEC3G degradation inhibitor project, dose response (AID 1117359); format: functional; conditions: THP-1
HEK293 [7] = experiment: cells; conditions: Homo sapiens; remark: listed apart in the source
[8] = target: Beta-2 adrenergic receptor (Homo sapiens, UniProt P07550); experiment: ADRB2 activation measured by internalization – cell-based, FAP fluorogen, flow cytometry, cherry pick 1, dose response (AID 588763); format: functional
[9] = target: Ras and Rab interactor 1/Tyrosine-protein kinase ABL1 (Homo sapiens, UniProt P00519+Q13671); format: functional;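 further: biochemical TR-FRET dose-response test measuring inhibition of binding between Rin1 and Abl proteins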
Protein Wnt-3a = Protein Wnt-3a (Mus musculus, UniProt P27467); experiment: antagonism of Wnt3a pathway luciferase reporter – Wnt-LIGHT cells, luminescence, selectivity assay for Gli-SUFU antagonist project, dose response (AID 651570); format: functional; conditions: read-out: IC50_Mean;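 further: Wnt-LIGHT reporter cells stimulated with conditioned medium from Wnt3a-producing cells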
[10] = target: COUP transcription factor 2 (Homo sapiens, UniProt P24468); experiment: Luminescence-based cell-based high throughput dose response assay to identify inhibitors of COUP-TFII (NR2F2).; format: functional;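 further: HEK293 cells transiently cotransfected with COUP-TFII expression vector and reporter; luciferase reporter luminescence driven by COUP-TFII from the pX2-168 reporter plasmid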
HEK293 [11] = experiment: EBV LMP1 TES2 canonical NF-kB signalling blockers – cell-based, HEK293, luciferase, cherry-pick, dose response (AID 588343); format: functional; conditions: Homo sapiens
[12] = target: T3, DNA repair protein RAD52 homolog (Homo sapiens, UniProt P43351); format: functional, biochemical
T3 sequence (P43351 whole entry): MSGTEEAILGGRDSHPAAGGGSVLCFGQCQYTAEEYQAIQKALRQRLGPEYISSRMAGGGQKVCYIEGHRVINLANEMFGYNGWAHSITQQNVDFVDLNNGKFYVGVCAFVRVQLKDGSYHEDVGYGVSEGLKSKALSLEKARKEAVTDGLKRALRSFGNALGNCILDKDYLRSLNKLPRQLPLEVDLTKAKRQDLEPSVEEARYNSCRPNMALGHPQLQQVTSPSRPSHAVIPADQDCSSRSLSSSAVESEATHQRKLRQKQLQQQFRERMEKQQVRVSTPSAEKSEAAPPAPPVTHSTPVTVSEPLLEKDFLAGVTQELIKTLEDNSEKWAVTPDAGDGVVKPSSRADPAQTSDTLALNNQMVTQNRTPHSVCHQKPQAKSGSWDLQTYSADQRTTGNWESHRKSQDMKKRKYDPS

Paired box protein Pax-8 = Paired box protein Pax-8 (Homo sapiens, UniProt Q06710); experiment: PAX8 transcriptional activity inhibition in RMG-I – RMG-I cells, luciferase, cherry-pick, dose response (AID 687027); format: functional, cell-based;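 further: luciferase reporter driven by Pax8 target thyroperoxidase promoter measured by SteadyGlo luminescence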
Melanocortin receptor 4 = Melanocortin receptor 4 (Homo sapiens, UniProt P32245); format: functional, cell-based;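 further: Cell-based assay with luminescence read-out, confirmatory dose-response testing for agonist activity of biased ligands at MC4R; human U2OS cells with tagged receptor and beta-arrestin; potency of agonists that increase receptor coupling to beta-arrestin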
[13] = target: Cell division cycle 7-related protein kinase (Homo sapiens, UniProt O00311); format: functional;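 further: value obtained from a kinome-wide kinase panel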
[14] = target: Cyclin-dependent kinase 19 (Homo sapiens, UniProt Q9BWU1); experiment: Navigating the Kinome. Panel member name: CDC2L6; format: functional
Aurora kinase A = target: T4, Aurora kinase A (Homo sapiens, UniProt O14965); format: functional;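 further: value from the Navigating the Kinome kinase panel profiling, panel entry STK6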
T4 sequence (O14965 whole entry): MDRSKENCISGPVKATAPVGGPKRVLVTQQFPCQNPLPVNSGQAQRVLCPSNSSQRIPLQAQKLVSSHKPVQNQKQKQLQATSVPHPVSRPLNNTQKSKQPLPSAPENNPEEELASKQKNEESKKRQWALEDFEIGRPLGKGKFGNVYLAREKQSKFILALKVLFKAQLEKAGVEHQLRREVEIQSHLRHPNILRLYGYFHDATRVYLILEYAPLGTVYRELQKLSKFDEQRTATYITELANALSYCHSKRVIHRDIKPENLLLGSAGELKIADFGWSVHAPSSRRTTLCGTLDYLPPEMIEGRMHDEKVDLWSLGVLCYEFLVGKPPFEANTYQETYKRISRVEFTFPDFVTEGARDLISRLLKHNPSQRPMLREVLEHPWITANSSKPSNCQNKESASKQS

[15] = target: Vascular endothelial growth factor receptor 2 (Homo sapiens, UniProt P35968); format: functional
Aurora kinase B = Aurora kinase B (Homo sapiens, UniProt Q96GD4); format: functional
[16] = target: Inhibitor of nuclear factor kappa-B kinase subunit epsilon (Homo sapiens, UniProt Q14164); experiment: Navigating the Kinome. Panel member name: IKBKE; format: functional
[17] = target: Cyclin-dependent kinase 8 (Homo sapiens, UniProt P49336); experiment: Navigating the Kinome. Panel member name: CDK8; format: functional
Activin receptor type-1 = Activin receptor type-1 (Homo sapiens, UniProt Q04771); experiment: Navigating the Kinome. Panel member name: ACVR1; format: functional
[18] = NIH3T3 cell viability loss – ATP luminescence, mouse fibroblasts, counter-screen, dose response (AID 2010); format: functional, cell-based;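 further: cells exposed to compound for about 90 hours before reading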
[19] = target: SWI/SNF-related matrix-associated actin-dependent regulator of chromatin subfamily A member 2 (Homo sapiens, UniProt P51531); experiment: Luminescence-based cell-based high throughput dose response assay to identify activators of the function of SWI/SNF related, matrix associated, actin dependent regulator of chromatin, subfamily a, member 2 (SMARCA2, BRM).; format: functional
[20] = Trypanosoma cruzi growth suppression in host cells – NIH3T3 host cells, beta-gal luminescence, confirmation (AID 2044); format: functional, cell-based;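 further: intracellular parasites grown in NIH/3T3 mouse fibroblasts as host cells; luminescent beta-galactosidase reporter signal from transgenic T. cruzi replicating inside host cells; inhibitors lower the luminescence signal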
A-375 = experiment: proliferation inhibition in MITF-low A375 cells – cell-based, cherry-pick samples, set 2, counter-screen for MITF modulator project, dose response (AID 540335); format: functional; conditions: Homo sapiens
[21] = target: T5, Serine/threonine-protein phosphatase (Candida dubliniensis (strain CD36 / CBS 7987 / NCPF 3949 / NRRLY-17841) (Yeast), UniProt B9W6M3); experiment: blockers of CaCl2-induced CDRE-lacZ signaling – S. cerevisiae, luminescence, secondary, dose response (AID 2388); format: functional, cell-based;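 further: yeast reporter cells carrying a calcineurin-responsive lacZ construct stimulated with calcium chloride; luminescent beta-galactosidase reporter signal in whole cells rather than isolated phosphatase activity; potency for inhibition where a drop in reporter signal means calcineurin blockade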
T5 sequence (B9W6M3 whole entry): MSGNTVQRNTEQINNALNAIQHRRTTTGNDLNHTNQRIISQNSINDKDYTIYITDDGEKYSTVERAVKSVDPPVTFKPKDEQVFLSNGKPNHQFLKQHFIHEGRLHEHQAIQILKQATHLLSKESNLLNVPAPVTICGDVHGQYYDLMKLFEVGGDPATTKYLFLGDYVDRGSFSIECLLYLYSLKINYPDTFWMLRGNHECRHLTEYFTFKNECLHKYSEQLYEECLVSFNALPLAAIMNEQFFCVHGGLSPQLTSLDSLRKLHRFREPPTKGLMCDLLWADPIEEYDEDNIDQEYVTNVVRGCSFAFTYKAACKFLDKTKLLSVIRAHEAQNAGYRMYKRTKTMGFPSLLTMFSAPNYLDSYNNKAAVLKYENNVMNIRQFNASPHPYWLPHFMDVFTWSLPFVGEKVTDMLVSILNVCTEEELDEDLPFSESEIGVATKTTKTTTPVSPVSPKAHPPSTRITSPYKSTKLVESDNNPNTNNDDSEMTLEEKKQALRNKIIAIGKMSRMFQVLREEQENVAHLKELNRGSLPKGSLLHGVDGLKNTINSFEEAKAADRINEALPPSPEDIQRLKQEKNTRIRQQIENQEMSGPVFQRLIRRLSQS

[22] = NIH-3T3 fibroblast cytotoxicity, dose response, cytotoxicity control, cell-based, fluorescence, Alamar Blue, secondary assay (AID 2327); format: functional;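 further: NIH-3T3 mouse fibroblasts cultured with fluconazole at 8 µg/mL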
INS1 = experiment: INS-1E survival protection against cytokine death – cell-based, luminescence, retest, dose response (AID 449756); format: functional; conditions: Rattus norvegicus;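 further: cell death triggered by IL-1 beta plus TNF-alpha plus IFN-gamma mixture; protective hits raise ATP signal compared with cytokine alone wells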
[23] = target: T6, Microphthalmia-associated transcription factor (Homo sapiens, UniProt O75030); experiment: reducers of TRPM1 reporter luminescence, concentration series – cell-based, SK-MEL-5, cherry-picked, set 3, MITF inhibitor project, dose response (AID 493073); format: functional;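 further: SK-MEL-5 melanoma cells with luciferase driven by the MITF target TRPM1 promoter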
T6 sequence (O75030 whole entry): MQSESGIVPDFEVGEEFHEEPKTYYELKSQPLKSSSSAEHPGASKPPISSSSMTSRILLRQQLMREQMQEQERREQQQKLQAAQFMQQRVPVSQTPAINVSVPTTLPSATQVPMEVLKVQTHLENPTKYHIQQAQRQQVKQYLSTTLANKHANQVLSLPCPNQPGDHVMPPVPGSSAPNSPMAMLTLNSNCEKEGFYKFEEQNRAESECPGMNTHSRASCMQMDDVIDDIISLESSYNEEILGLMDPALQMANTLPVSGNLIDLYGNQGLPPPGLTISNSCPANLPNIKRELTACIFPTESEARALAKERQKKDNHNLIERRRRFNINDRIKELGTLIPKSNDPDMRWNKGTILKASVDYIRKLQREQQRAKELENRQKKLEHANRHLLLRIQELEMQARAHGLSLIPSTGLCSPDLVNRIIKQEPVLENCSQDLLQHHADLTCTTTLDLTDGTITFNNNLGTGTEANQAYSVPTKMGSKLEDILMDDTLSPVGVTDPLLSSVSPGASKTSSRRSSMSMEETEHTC

[24] = Counterscreen for activators of the function of SWI/SNF related, matrix associated, actin dependent regulator of chromatin, subfamily a, member 2 (SMARCA2, BRM): Luminescence-based cell-based high throughput dose response assay to identify non-selective compounds using the VP16 reporter assay.; format: functional
[25] = target: ATP-dependent molecular chaperone HSP82 (Candida albicans (strain WO-1) (Yeast), UniProt C4YTQ8); experiment: steroid-induced GRE reporter decrease in yeast – S. cerevisiae, luminescence, Hsp90 inhibitor project, dose response (AID 2400); format: functional, cell-based;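 further: beta-galactosidase luminescence from glucocorticoid response element reporter as proxy for Hsp90 function; inhibitor potency where signal loss means Hsp90 inhibition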
[26] = fluconazole-exposed Candida albicans growth modulators – fluorescence, retest, confirmation (AID 2467); format: functional, cell-based
[27] = target: Dual specificity protein kinase CLK4 (Homo sapiens, UniProt Q9HAZ1); format: functional

Chain of Cyclin-dependent kinase 19 (Q9BWU1 whole entry): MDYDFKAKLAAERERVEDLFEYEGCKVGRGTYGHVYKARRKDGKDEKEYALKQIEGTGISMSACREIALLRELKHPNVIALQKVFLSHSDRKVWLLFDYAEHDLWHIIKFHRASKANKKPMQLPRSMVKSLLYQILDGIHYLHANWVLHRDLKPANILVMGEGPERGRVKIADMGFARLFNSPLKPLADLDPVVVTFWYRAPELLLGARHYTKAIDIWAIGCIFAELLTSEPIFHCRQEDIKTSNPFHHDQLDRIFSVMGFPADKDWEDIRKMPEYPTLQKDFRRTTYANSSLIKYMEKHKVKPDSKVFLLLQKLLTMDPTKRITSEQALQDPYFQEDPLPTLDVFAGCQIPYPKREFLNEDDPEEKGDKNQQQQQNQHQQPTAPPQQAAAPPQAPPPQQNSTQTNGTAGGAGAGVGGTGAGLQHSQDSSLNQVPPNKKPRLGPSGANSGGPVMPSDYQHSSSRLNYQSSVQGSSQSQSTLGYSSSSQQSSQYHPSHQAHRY
Chain of Beta-2 adrenergic receptor (P07550 whole entry): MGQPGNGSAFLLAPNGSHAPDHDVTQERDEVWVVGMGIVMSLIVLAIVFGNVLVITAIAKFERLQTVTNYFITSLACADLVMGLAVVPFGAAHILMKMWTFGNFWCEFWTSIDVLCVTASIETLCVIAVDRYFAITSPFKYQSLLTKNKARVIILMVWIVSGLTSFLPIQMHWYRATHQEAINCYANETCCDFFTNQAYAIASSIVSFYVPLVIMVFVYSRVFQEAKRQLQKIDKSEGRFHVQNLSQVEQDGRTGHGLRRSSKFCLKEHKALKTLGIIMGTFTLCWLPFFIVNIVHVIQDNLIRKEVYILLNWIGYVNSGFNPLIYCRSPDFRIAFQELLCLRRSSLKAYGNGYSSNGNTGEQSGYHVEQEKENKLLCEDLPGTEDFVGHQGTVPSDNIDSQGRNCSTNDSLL
T2 sequence (P65502 whole entry): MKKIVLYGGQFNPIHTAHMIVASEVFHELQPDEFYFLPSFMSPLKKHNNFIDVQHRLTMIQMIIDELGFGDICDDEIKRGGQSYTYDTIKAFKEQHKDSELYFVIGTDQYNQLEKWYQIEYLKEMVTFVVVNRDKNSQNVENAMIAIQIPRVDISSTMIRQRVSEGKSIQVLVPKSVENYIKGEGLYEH
Chain of Aurora kinase B (Q96GD4 whole entry): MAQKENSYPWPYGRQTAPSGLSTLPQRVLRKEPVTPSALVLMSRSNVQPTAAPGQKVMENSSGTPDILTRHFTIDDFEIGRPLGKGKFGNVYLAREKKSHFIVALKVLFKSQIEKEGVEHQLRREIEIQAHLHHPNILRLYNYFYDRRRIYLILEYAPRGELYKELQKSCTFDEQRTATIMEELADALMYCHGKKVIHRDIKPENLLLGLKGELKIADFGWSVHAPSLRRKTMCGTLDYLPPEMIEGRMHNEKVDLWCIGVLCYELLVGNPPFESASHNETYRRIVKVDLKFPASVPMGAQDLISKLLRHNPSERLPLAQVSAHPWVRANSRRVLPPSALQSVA
Chain of DNA (cytosine-5)-methyltransferase 1 (P26358 whole entry): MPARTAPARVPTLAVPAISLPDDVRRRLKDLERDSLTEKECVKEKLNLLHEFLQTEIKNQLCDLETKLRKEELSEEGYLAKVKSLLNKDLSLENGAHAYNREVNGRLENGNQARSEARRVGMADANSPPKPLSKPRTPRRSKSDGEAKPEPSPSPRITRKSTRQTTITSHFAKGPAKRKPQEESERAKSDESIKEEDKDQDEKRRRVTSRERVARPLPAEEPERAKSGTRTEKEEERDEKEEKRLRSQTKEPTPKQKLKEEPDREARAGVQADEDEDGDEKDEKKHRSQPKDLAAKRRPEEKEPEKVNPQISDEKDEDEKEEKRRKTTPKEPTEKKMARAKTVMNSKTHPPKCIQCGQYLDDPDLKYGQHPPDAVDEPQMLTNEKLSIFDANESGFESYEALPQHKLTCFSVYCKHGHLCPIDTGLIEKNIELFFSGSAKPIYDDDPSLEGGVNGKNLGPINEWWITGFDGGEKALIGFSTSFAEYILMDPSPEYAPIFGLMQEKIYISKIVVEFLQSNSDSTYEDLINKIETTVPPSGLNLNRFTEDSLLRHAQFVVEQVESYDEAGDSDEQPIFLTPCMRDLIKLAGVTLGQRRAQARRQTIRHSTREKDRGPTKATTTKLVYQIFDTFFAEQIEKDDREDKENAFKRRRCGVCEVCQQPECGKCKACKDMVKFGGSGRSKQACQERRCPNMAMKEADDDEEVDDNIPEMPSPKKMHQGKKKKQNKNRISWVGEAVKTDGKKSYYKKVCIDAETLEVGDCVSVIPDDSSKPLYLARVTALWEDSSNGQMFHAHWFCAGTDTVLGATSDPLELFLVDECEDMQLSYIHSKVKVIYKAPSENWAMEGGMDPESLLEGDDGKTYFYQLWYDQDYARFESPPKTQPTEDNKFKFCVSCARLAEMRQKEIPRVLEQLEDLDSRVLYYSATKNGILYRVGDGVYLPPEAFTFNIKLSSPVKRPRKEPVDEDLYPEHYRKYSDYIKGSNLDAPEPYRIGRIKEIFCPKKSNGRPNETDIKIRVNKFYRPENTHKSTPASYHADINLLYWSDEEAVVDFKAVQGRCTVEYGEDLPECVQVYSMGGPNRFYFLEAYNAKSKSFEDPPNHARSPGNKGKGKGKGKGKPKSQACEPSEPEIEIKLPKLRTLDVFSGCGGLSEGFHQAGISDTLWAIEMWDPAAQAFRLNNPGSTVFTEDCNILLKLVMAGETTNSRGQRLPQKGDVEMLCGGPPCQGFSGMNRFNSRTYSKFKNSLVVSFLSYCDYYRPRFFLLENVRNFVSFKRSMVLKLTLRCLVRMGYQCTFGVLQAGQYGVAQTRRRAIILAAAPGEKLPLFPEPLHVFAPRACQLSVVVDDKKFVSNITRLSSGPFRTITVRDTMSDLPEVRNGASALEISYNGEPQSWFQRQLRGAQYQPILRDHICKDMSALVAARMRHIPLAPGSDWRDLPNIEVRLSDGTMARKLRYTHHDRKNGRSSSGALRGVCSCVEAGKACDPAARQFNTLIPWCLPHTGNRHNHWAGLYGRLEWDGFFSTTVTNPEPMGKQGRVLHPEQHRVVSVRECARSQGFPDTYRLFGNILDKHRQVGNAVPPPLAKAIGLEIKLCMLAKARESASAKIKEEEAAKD
Chain of Vascular endothelial growth factor receptor 2 (P35968 whole entry): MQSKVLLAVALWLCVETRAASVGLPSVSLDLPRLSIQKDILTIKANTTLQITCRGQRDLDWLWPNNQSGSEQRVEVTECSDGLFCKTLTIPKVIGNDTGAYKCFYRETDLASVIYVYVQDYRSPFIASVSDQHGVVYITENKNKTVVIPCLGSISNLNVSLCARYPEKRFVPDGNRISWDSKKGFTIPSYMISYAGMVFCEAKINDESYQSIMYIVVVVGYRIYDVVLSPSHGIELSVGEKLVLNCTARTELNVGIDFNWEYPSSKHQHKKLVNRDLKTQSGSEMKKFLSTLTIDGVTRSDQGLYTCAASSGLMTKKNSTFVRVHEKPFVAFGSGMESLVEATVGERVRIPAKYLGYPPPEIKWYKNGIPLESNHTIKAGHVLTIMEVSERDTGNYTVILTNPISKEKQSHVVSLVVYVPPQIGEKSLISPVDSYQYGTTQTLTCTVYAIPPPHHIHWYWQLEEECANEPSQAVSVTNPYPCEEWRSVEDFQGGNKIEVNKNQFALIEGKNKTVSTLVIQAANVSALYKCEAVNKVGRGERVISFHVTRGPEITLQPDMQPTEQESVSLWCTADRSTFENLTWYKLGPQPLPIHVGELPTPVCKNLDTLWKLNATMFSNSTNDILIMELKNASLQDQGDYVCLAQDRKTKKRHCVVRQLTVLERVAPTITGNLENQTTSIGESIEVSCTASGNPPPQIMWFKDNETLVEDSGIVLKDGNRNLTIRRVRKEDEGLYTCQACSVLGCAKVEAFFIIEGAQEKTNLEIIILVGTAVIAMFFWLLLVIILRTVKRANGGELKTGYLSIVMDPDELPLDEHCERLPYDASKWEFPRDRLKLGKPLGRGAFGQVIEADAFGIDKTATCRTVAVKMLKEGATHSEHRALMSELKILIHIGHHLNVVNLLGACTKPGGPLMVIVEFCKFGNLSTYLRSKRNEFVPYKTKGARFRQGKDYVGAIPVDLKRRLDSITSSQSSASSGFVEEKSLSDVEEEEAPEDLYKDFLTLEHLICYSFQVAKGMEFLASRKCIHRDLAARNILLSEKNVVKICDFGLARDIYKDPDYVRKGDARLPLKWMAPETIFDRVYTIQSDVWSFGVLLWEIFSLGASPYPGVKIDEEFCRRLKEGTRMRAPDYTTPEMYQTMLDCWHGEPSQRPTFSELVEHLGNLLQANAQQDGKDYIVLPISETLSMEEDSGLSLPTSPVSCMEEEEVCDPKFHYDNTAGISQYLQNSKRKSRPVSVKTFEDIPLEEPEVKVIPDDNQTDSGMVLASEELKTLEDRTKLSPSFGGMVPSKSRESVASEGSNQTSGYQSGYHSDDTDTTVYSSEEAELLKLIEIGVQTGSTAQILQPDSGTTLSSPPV
Chain of COUP transcription factor 2 (P24468 whole entry): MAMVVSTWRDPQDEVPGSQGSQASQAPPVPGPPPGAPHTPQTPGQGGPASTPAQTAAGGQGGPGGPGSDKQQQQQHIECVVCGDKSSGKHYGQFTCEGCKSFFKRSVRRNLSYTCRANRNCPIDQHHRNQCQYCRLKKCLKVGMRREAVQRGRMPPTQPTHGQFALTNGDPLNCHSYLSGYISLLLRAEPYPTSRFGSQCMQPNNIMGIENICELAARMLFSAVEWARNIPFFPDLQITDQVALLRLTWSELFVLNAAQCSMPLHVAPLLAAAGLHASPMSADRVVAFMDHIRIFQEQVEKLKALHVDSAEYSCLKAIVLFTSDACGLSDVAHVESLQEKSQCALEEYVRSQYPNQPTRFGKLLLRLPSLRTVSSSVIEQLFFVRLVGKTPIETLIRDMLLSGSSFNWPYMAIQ

SMILES: CN(C)C(CNC(=O)c1cc(-c2ccco2)nc2ccccc12)c1ccccc1 (configuration not stated)
- IC50 [1]: 2.75 µM (active)
- IC50 [2]: 6.25 µM (active)
- IC50 [3]: 11.2 µM (active)
- IC50 [4]: 25.9 µM (active)

SMILES: Cn1cccc1/C=C1\C(=O)NC(=O)N(Cc2ccccc2)C1=O
- CC50 (Vero): > 40 µM (active)
- IC50 (Genome polyprotein): 23.4 µM (active)
- EC50 (HEK293 [5]): > 59.6 µM (inactive)
- CC50 [6]: > 40 µM (active)
- EC50 (HEK293 [7]): > 59.6 µM (inactive)

SMILES: COc1ccc(-c2cc(C(F)(F)F)nc(S(=O)(=O)CCC(=O)N3CCOCC3)n2)cc1
- EC50 [8]: 25.3 µM (inactive)

SMILES: O=C(Nc1ccc(O)cc1C(=O)O)c1cccc(Br)c1
- IC50 [9]: 19.1 µM (inactive)

SMILES: COc1ccc(N2CCN(c3[nH]cnc4c5ccccc5nc3-4)CC2)cc1
- IC50 (Protein Wnt-3a): 1.14 µM (active)
- IC50 [10]: 5.54 µM (active)
- AC50 (HEK293 [11]): 0.865 µM (active)

SMILES: Cc1ccc(NC(=O)c2ccc(N3CCOCC3)c([N+](=O)[O-])c2)cc1S(=O)(=O)N1CCOCC1
- EC50 [8]: 10.1 µM (inactive)

SMILES: CC(=O)Nc1cc(-c2cccc(C(=O)NCCN(C)C)c2)cn2c(-c3cccc(C(F)(F)F)c3)cnc12
- AC50 [12]: 3.93 µM (active)
- AC50 (Paired box protein Pax-8): 11.5 µM (active)
- EC50 (Melanocortin receptor 4): > 89.2 µM (inactive)

SMILES: O=C(O)c1ccccc1Nc1ccnc(N2CCCCC2)n1
- Ki [13]: 3.98 µM (active)
- Ki [14]: > 100 µM (inactive)

SMILES: Cc1n[nH]c2c1c(=O)n(C)c1ccccc21
- Ki (Aurora kinase A): 1 µM (active)
- Ki [15]: 0.631 µM (active)
- Ki (Aurora kinase B): 0.0501 µM (active)

SMILES: Cc1cccc(NC(=O)Nc2ccc(-c3nn(C)c4ncnc(N)c34)cc2)c1
- Ki [16]: 0.501 µM (active)
- Ki (Aurora kinase A): 0.0398 µM (active)
- Ki (Aurora kinase B): 0.00158 µM (active)

SMILES: Cc1nn(C)c(=O)c(N)c1-c1ccccc1
- Ki [17]: 31.6 µM (active)
- Ki (Activin receptor type-1): 50.1 µM (active)

SMILES: CC(=O)Nc1ccc(Nc2c3ccccc3nc3ccccc23)cc1
- EC50 [18]: 0.536 µM (active)
- AC50 [12]: 2.21 µM (active)
- EC50 [19]: > 91.1 µM (inactive)
- EC50 [20]: 0.556 µM (active)
- AC50 (A-375): 13.8 µM (active)
- EC50 [21]: > 180 µM (inactive)
- EC50 [22]: 10.5 µM (active)
- AC50 (INS1): 3.71 µM (active)
- AC50 [23]: 4.9 µM (active)
- EC50 [24]: > 91.1 µM (inactive)
- EC50 [25]: > 150 µM (inactive)
- EC50 [26]: 1.32 µM (active)

SMILES: O=c1cc(Cc2nc3ccccc3[nH]2)[nH]n1-c1ccccc1
- Ki [27]: 1.26 µM (active)
- Ki [14]: > 100 µM (inactive)
